Measured values taken from patent publication US20230172204A1 (BASF SE, priority 2020, published 2023).

What was measured:
[1] = tested on: Phakopsora pachyrhizi (F129L); assay: Protective control of soybean rust on soybeans (PHAKPA P6); format: in vivo; conditions: for % PHAKPA (F129L) Disease level P6 at 4 ppm: protective P6, 4 ppm; for % PHAKPA (F129L) Disease level P6 at 4 ppm / % PHAKPA (F129L) Disease level P6 at 16 ppm: soybean rust F129L; for % PHAKPA (F129L) Disease level P6 at 16 ppm: protective P6, 16 ppm; for PHAKPA (F129L) Disease level (%) P6 at 16 ppm / PHAKPA (F129L) Disease level (%) P6 at 4 ppm: P6 protective, % diseased leaf area
[2] = tested on: Phakopsora pachyrhizi (F129L); assay: Protective control of soybean rust on soybeans (PHAKPA P2); format: in vivo; conditions: for % PHAKPA (F129L) Disease level P2 at 4 ppm: protective P2, 4 ppm; for % PHAKPA (F129L) Disease level P2 at 4 ppm / % PHAKPA (F129L) Disease level P2 at 16 ppm: soybean rust F129L; for % PHAKPA (F129L) Disease level P2 at 16 ppm: protective P2, 16 ppm; for PHAKPA (F129L) Disease level (%) P2 at 16 ppm / PHAKPA (F129L) Disease level (%) P2 at 4 ppm: P2 protective, % diseased leaf area

Compound	% PHAKPA (F129L) Disease level P6 at 4 ppm [1] [%]	% PHAKPA (F129L) Disease level P6 at 16 ppm [1] [%]	% PHAKPA (F129L) Disease level P2 at 4 ppm [2] [%]	% PHAKPA (F129L) Disease level P2 at 16 ppm [2] [%]	PHAKPA (F129L) Disease level (%) P6 at 16 ppm [1] [%]	PHAKPA (F129L) Disease level (%) P2 at 16 ppm [2] [%]	PHAKPA (F129L) Disease level (%) P6 at 4 ppm [1] [%]	PHAKPA (F129L) Disease level (%) P2 at 4 ppm [2] [%]
CO/N=C(/C(=O)OC)c1cccc(C)c1CO/N=C(\C)c1c(F)cc(F)cc1OC(F)(F)F [compound 361]	88	31	80	18	–	–	–	–
CO/N=C(/C(=O)OC)c1ccccc1CO/N=C(\C)c1cc(F)ccc1F [reference compound]	–	–	–	–	22	1	–	–
CO/N=C(/C(=O)OC)c1cccc(C)c1CO/N=C(\C)c1ccc(F)c(F)c1OC(F)(F)F [compound 447]	33	1	7	0	–	–	–	–
CO/N=C(/C(=O)OC)c1cccc(C)c1CO/N=C(/c1cccc(C(F)(F)F)c1)C(C)C [compound 206]	100	90	100	67	–	–	–	–
CNC(=O)/C(=N/OC)c1ccccc1CO/N=C(\C)c1cccc(Br)c1 [reference compound]	–	–	–	–	–	–	70	27
CNC(=O)/C(=N/OC)c1cccc(C)c1CO/N=C(\C)c1ccc(F)c(C(F)(F)F)c1 [compound 47]	12	0	13	0	–	–	–	–
CCC/C(=N\OCc1c(C)cccc1/C(=N\OC)C(=O)NC)c1ccccc1 [compound 388]	3	0	1	0	–	–	–	–
CO/N=C(/C(=O)OC)c1cccc(C)c1CO/N=C(\C)c1ccc(C(F)(F)F)cc1 [Ex. 37]	40	2	40	3	0	0	–	–
CNC(=O)/C(=N/OC)c1cccc(C)c1CO/N=C(\C)c1ccccc1C(F)F [compound 298]	97	37	63	7	–	–	–	–
CNC(=O)/C(=N/OC)c1cccc(C)c1CO/N=C(\C)c1cccc(-c2noc(C(F)(F)F)n2)c1 [Ex. 205]	–	–	–	–	1	1	–	–
CNC(=O)/C(=N/OC)c1cccc(C)c1CO/N=C(\C)c1cccc(C(C)(F)F)c1 [compound 303]	12	0	2	0	–	–	–	–
CO/N=C(\C)c1ccc(/C(C)=N/OCc2ccccc2/C(=N\OC)C(=O)OC)cc1 [reference compound]	–	–	–	–	60	57	–	–
C=Cc1ccccc1/C(C)=N/OCc1c(C)cccc1/C(=N\OC)C(=O)NC [compound 211]	100	77	100	43	–	–	–	–
COC=C(C(=O)OC)c1cccc(C)c1CON=C(C)c1cccc(C(F)(F)F)c1 [Ex. 231]	2	0	0	0	–	–	2	0
CNC(=O)/C(=N/OC)c1cccc(C)c1CO/N=C(\C)c1ccc(Cl)c(F)c1OC(F)(F)F [compound 449]	57	9	33	10	–	–	–	–
CNC(=O)/C(=N/OC)c1cccc(C)c1CO/N=C(\C)c1ccc(F)cc1F [compound 267]	10	4	2	0	–	–	–	–
CNC(=O)/C(=N/OC)c1cccc(C)c1CO/N=C(\CC(F)(F)F)c1ccccc1 [compound 380]	60	12	53	5	–	–	–	–
CO/N=C(/C(=O)OC)c1cccc(C)c1CO/N=C(\C)c1ccc(OC(F)(F)F)cc1F [compound 269]	18	0	5	0	–	–	–	–
CNC(=O)/C(=N/OC)c1cccc(C)c1CO/N=C(\C)c1cccc(N2CC(F)(F)C2)c1 [compound 44]	77	21	77	17	–	–	–	–
CNC(=O)/C(=N/OC)c1cccc(C)c1CO/N=C(\C)c1ccc(Cl)c(C(F)(F)F)c1 [Ex. 60]	53	2	23	1	0	0	–	–
CNC(=O)/C(=N/OC)c1cccc(C)c1CO/N=C(\C)c1c(F)cc(F)cc1OC(F)(F)F [compound 344]	16	0	6	0	–	–	–	–
CO/N=C(/C(=O)OC)c1cccc(C)c1CO/N=C(\C)c1ccc(C)cc1 [Ex. 5, Methyl (2E)-2-methoxyimino-2-[3-methyl-2-[[(E)-1-(p-tolyl)ethylideneamino]oxymethyl]phenyl]acetate]	50	4	28	1	4	1	–	–
